# pIC50: −log10 of the molar value.
# How the values were obtained:
# [1] = molecular target: Cyclin-dependent kinase 5/CDK5 activator 1 (Homo sapiens, UniProt Q00535); experiment: Inhibition of human CDK5/p25 assessed as histone h1 phosphorylation in presence of ATP; assay type: protein-complex assay
# Brain = experiment: Drug uptake in rat brain at 2 mg/kg, iv; assay type: ADME, organism-based; parameters: dose 2 mg/kg, route intravenous; conditions: in vivo
# Homo sapiens = organism: Homo sapiens; experiment: Selectivity for human CDK5/p25 over human CDK2/cyclin E2
# Sequence of Cyclin-dependent kinase 5/CDK5 activator 1 (Q00535 whole entry): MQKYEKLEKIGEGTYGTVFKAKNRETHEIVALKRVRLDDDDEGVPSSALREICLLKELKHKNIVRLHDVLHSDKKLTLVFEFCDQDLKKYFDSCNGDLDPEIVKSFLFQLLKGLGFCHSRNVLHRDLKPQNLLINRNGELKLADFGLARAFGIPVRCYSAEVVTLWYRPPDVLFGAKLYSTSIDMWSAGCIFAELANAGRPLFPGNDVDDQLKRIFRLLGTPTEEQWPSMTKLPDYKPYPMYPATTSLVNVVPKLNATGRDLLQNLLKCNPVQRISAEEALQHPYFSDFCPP
# Sequence of Cyclin-dependent kinase 5/CDK5 activator 1 (Q15078 whole entry, further chain): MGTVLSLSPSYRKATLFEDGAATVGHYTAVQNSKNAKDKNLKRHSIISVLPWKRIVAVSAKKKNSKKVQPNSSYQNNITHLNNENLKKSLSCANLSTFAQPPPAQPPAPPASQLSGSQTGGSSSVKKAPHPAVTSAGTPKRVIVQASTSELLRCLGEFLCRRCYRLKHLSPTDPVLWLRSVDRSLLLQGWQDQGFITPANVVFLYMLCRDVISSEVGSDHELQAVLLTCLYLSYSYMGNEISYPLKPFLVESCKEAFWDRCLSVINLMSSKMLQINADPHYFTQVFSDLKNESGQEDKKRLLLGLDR
pIC50 [1],Drug uptake (Brain) [ng/g],fold change (FC) (Homo sapiens),SMILES
7.70,,,CCOC(=O)c1cc(-c2csc(-c3ccnc(N)c3)n2)c(=O)[nH]c1C
6.80,,,CCOC(=O)c1cc(-c2csc(-c3ccnc(Cl)c3)n2)c(=O)[nH]c1C
7.28,,,CCN(CC)CCOC(=O)c1cc(-c2csc(-c3ccncc3)n2)c(=O)[nH]c1C(C)C
6.88,,,CCOC(=O)c1cc(-c2csc(-c3ccncc3)n2)c(=O)[nH]c1C
6.11,,,CCOC(=O)c1cc(-c2csc(-c3ccncc3)n2)c(=O)[nH]c1COCc1ccccc1
7.14,,,CC(C)c1[nH]c(=O)c(-c2csc(-c3ccncc3)n2)cc1C(=O)OC1CCCN(C)C1 (stereo not drawn)
7.55,,,CCOC(=O)c1cc(-c2csc(-c3ccnc(NC)c3)n2)c(=O)[nH]c1C(C)C
7.44,,,CCN(CC)CC(C)OC(=O)c1cc(-c2csc(-c3ccncc3)n2)c(=O)[nH]c1C(C)C (stereo not drawn)
8.48,44,70,CCOC(=O)c1cc(-c2csc(CS(=O)(=O)c3ccccc3)n2)c(=O)[nH]c1C
8.39,,,CCOC(=O)c1cc(-c2csc(-c3ccncc3)n2)c(=O)[nH]c1CC
6.86,,,CCOC(=O)c1cc(-c2csc(-c3ccnc(NCCN(CC)CC)c3)n2)c(=O)[nH]c1C
7.33,,,CCN(CC)CCCOC(=O)c1cc(-c2csc(-c3ccncc3)n2)c(=O)[nH]c1C(C)C
6.92,,,CC(C)c1[nH]c(=O)c(-c2csc(-c3ccncc3)n2)cc1C(=O)OCCc1ccccc1
6.70,,,CCOC(=O)c1cc(-c2csc(-c3ccncc3)n2)c(=O)[nH]c1C1CC1
6.17,,,CCOC(=O)c1cc(-c2csc(-c3ccnc(OC)c3)n2)c(=O)[nH]c1C(C)C
7.85,,,CCOC(=O)c1cc(-c2csc(-c3ccnc(NCC(C)C)c3)n2)c(=O)[nH]c1C
6.95,,,CC(C)c1[nH]c(=O)c(-c2csc(-c3ccncc3)n2)cc1C(=O)OCCN1CCCC1
8.85,,70,CCCc1[nH]c(=O)c(-c2csc(CS(=O)(=O)c3ccccc3)n2)cc1C(=O)OCC
7.26,,,CCCc1[nH]c(=O)c(-c2csc(-c3ccncc3)n2)cc1C(=O)OCC
6.80,4640,,CCOC(=O)c1cc(-c2csc(-c3ccncc3)n2)c(=O)[nH]c1C(C)C
6.19,,,CC(C)c1[nH]c(=O)c(-c2csc(-c3ccncc3)n2)cc1C(=O)OC1CCN(C)CC1
8.28,,70,CCOC(=O)c1cc(-c2csc(CS(=O)(=O)c3ccccc3)n2)c(=O)[nH]c1COCc1ccccc1
4.94,,,CCOC(=O)c1cc(-c2csc(-c3ccncc3)n2)c(=O)[nH]c1C(F)(F)F
